The subject of experiment [1] is MPTP-lesioned marmoset model of Parkinson's disease. Put plainly: L-DOPA-induced dyskinesia score, MPTP-lesioned marmoset (Example 1). Format: in vivo, marmosets (Callithrix jacchus). The settings on record: for Dyskinesia: first hour post drug administration, vs L-DOPA + vehicle. The method, then: This study was designed to investigate whether levetiracetam has anti-dyskinetic activity in the 1-methyl-4-phenyl-1,2,3,6-tetrahydropyridine (MPTP)-lesioned marmoset model of Parkinson's disease. The effect of levetiracetam on L-3,4-dihydroxyphenylalanine (L-DOPA)-induced dyskinesias and alleviation of parkinsonism symptoms was investigated.
The study was performed on seven adult marmosets (Callithrix jacchus) bred in a closed colony. The marmosets were rendered parkinsonian by subcutaneous injection of 2 mg/kg MPTP for 5 consecutive days. The marmosets were allowed to recover for 18 weeks until their parkinsonism became stable. The degree of activity and disability before and after MPTP treatment was assessed using a combination of scales that measure locomotor activity, mobility, bradykinesia and posture. Animals were treated with L-DOPA (12.5 mg/kg b.i.d. for 6 weeks) to prime them to elicit dyskinesia.
All drugs were administered orally in a volume of 5 ml/kg via a syringe in the animal's home cage. The animals were immediately transferred to the experimental cage (60 cm×55 cm×75 cm, with the perch 25 cm from floor of cage) for behavioural assessment. Vehicle was apple juice in all cases.
3)Dyskinesia—non-parametric measures based on the following scale Dyskinesia score: 0=Absent, 1=Mild, fleeting, 2=Moderate, not interfering with normal activity, 3=Marked, at times interfering with normal activity, 4=Severe, continuous, replacing normal activity.
Behaviour was assessed for 6 hours post drug administration. Behavioural test 1, activity, was assessed every 5 minutes for 6 hours post drug administration. Behavioural tests 2 and 3, parkinsonian disability and dyskinesia, respectively, were assessed for 10 minutes every 30 minutes over the course of 6 hours, by post hoc analysis of video-recordings by an observer blinded to the treatment. The score given in each 10 minutes time period represents the maximum score achieved during that time period.
Table 1 outlines the randomised treatment schedule i.e. three doses of levetiracetam drug in combination with a single dose of L-DOPA. The actions of each of these three combination therapies were compared with that of L-DOPA plus the appropriate vehicle. Thus, a total of four treatments were given.

The test system is the same in experiment [2]. Put plainly: Parkinsonian disability with Ropinirole, MPTP-lesioned marmoset (Example 3). The format is in vivo, marmosets (Callithrix jacchus). The settings on record: for Parkinsonian disability: Levetiracetam 13 mg/kg + Ropinirole 3.75 mg/kg. Here is the method: This study was designed to investigate whether Levetiracetam has a potential as an adjunctive anti-parkinsonian agent to dopamine replacement therapy in the 1-methyl-4-phenyl-1,2,3,6-tetrahydropyridine (MPTP)-lesioned marmoset model of Parkinson's disease. The effect of Levetiracetam on Ropinirole alleviation of parkinsonism symptoms was investigated. The study was performed on six adult marmosets (Callithrix jacchus; 4 female, 2 male). The marmosets were rendered parkinsonian by subcutaneous injection of 2 mg/kg MPTP for 5 consecutive days. The marmosets were allowed to recover for 18 weeks until their parkinsonism was stable. The degree of activity and disability before and after MPTP treatment were assessed using a combination of scales that measure locomotor activity, mobility, bradykinesia and posture. Animals were treated with L-DOPA 12 mg/kg b.i.d. for 6 weeks. After this time, animals were used for assessment of potential symptomatic antiparkinsonian therapy. All drugs were administered orally in a volume of 5 ml/kg via a syringe in the animal's home cage. The animals were immediately transferred to an experimental cage (60 cm×55 cm×75 cm, with the perch 25 cm from floor of cage) for behavioural assessment. Vehicle was apple juice in all cases. The doses were 3.75 mg/kg of Ropinirole in combination with Levetiracetam at 13, 30 and 60 mg/kg. Behaviour was assessed for 6 hours post drug administration. […] Behavioural test 1 (activity) was assessed every 5 minutes for 6 hours post drug administration. Behavioural tests 2 (parkinsonian disability) was assessed for 10 minutes every 30 minutes over the course of 6 hours, by post hoc analysis of video-recordings by an observer blinded to the treatment. The score given/achieved in each 10 minute time period was presented.

With `CC[C@@H](C(N)=O)N1CCCC1=O` [levetiracetam, (S)-α-ethyl-2-oxo-1-pyrrolidineacetamide], the Dyskinesia entry was “significantly reduced” in experiment [1] (levetiracetam 13 mg/kg + L-DOPA 12 mg/kg oral, p<0.01); “significantly reduced” in experiment [1] (levetiracetam 30 mg/kg + L-DOPA 12 mg/kg oral, p<0.05); “significantly reduced” in experiment [1] (levetiracetam 60 mg/kg + L-DOPA 12 mg/kg oral, p<0.01). Besides, the Dyskinesia scores entry in experiment [1] (levetiracetam 13, 30 and 60 mg/kg + L-DOPA 12 mg/kg, any time-point after one hour post drug administration, p>0.05) was “no significant differences”. For the same compound, the “Potentiation of the alleviation of parkinsonism by Ropinirole” value in experiment [2] (Levetiracetam 13 mg/kg + Ropinirole 3.75 mg/kg oral) is “significantly potentiated”; in experiment [2] (Levetiracetam 30 mg/kg + Ropinirole 3.75 mg/kg oral), “significantly potentiated”; in experiment [2] (Levetiracetam 60 mg/kg + Ropinirole 3.75 mg/kg oral), “not”. Besides, the Parkinsonian disability result was “significantly reduced” in experiment [2] (during 3-4 hour time period, P<0.05) and “significantly reduced” in experiment [2] (over the experiment as a whole, P<0.05). Also, the Range of movement entry in experiment [2] (Levetiracetam 30 mg/kg + Ropinirole 3.75 mg/kg, during the 0-1 hour time period, P<0.05) was “significantly increased”.

Source of the values: patent US20040242671A1, “Use of 2-oxo-1-pyrrolidine derivatives for the preparation of a drug” (priority 2001, published 2004).
